“Also recorded” adds a separate entry of the source.
Tested on: SARS-CoV-2 P.1 lineage (gamma variant)
Parameters: species or system K18-hACE2 mice
Settings: in vivo

`COC(=O)N[C@H](C(=O)N1CCC[C@H]1c1nc(-c2ccc(-c3ccc(-c4c[nH]c([C@@H]5CCCN5C(=O)[C@@H](NC(=O)OC)C(C)C)n4)cc3)cc2)c[nH]1)C(C)C` [daclatasvir] was tested, and the mouse survival was “increased mouse survival; also recorded: did not significantly affect”, the “LDH levels in bronchoalveolar lavage (BAL) fluid (cell death, lung necrosis)” value (mouse) was “decreased levels” and the “SARS-CoV-2-induced increase in IL-6” value (mouse) was “prevented”. For the same compound, the “SARS-CoV-2-induced increase in KC” value (mouse) was “prevented”, the “SARS-CoV-2-induced increase in TNF-α” value (mouse) was “prevented” and the “cellular infiltration in BAL fluid” value (mouse) was “reduced cellular infiltration”. For the same compound, the “double-stranded RNA (dsRNA) levels in the lungs” value (mouse) was “lower levels”, the “loss of body weight” value (mouse) was “reduced” and the “lung parenchyma affected by alveolar collapse” value (mouse) was about 10%. The “reduction of SARS-CoV-2 RNA levels in the lungs” value (mouse) was “up to 3 log10”, the “reduction of SARS-CoV-2 titers in the lungs” value (mouse) was “up to 3 log10” and the “virus-induced score of clinical severity” value (mouse) was “reduced”.

— publication PMC11680164 (Viruses, 2024)
